Measurements taken from paper PMC11984407, “A natural small molecule isoginkgetin alleviates hypercholesterolemia and atherosclerosis by targeting ACLY” (Theranostics, 2025).

How the values were obtained:
[1] = system: high and very high cardiovascular risk patients intolerant to statins; design: method as in PMID 36876740; conditions: statin-intolerant patients, LDL-C ≥100 mg/dL; cited from earlier work
rhesus monkeys = system: rhesus monkeys; design: method as in PMID 36873173; conditions: two weeks; cited from earlier work
[2] = Copper-induced LDL oxidation, agarose gel electrophoresis; conditions: varying concentrations, copper 5 μM
Protocol: Prior to oxidation, EDTA was removed from LDL solutions (YB-001; Yiyuan Biotechnologies, Guangzhou, China). Subsequently, LDL solutions at a concentration of 0.2 mg/mL were incubated with varying concentrations of ISOGK in PBS for one h at 37 °C. The oxidation process was initiated by combining both native LDL and LDL pretreated with ISOGK with copper sulfate (99.0% purity; Jinshanting New Chemical Reagent Factory, Shanghai, China) to achieve a final copper concentration of 5 μM in PBS. This mixture was then incubated at 37 °C. Agarose gel electrophoresis was performed utilizing 0.5% agarose gels prepared in a sodium barbital buffer, following the stipulated electrophoretic methodology. The procedure was carried out in a 0.075 M sodium barbital buffer at a constant voltage of 55 V for a duration of one h. The relative electrophoretic mobility (REM) was determined by calculating the ratio of the migration distance of oxidized LDL to that of native LDL.

CC(C)(CCCCCC(O)CCCCCC(C)(C)C(=O)O)C(=O)O [Bempedoic acid, bempedoic acid]
primary composite endpoint vs placebo [1]: slight reduction in the primary composite endpoint

CC(C)c1c(C(=O)Nc2ccccc2)c(-c2ccccc2)c(-c2ccc(F)cc2)n1CC[C@@H](O)C[C@@H](O)CC(=O)O [atorvastatin]
LDL-C reduction from the baseline (rhesus monkeys): 19.4%

Vitamin E [reference compound]
antioxidant activity against copper-induced LDL oxidation (REM) [2]: retards LDL
